“Also recorded” adds a separate entry of the source.
Key:
[1] = tested on: presynaptic NMDARs of spinal dorsal horn neurons; experiment: Spinal cord slice recordings, morphine-treated WT and Cacna2d1 KO mice
[2] = tested on: rats treated with the Cacna2d1 vector; experiment: Withdrawal thresholds in rats overexpressing Cacna2d1 (lentiviral vector); format: in vivo, rat; settings: Cacna2d1 vector rats; AP5, peptide, gabapentin intrathecal; memantine systemic
[3] = tested on: presynaptic NMDARs of spinal lamina II neurons; experiment: Spinal cord slice recordings, paclitaxel-treated WT and α2δ-1 KO mice; format: cell-based, mouse; settings: bath AP5
[4] = target: T1, NMDARs of spinal dorsal horn neurons (Mus musculus, UniProt P35436+P35438+Q01097); experiment: Electrophysiological recordings in mouse spinal cord slices (spared nerve injury); format: cell-based; settings: Cacna2d1+/+ mice; bath application of AP5
T1 construct: from tissue; host or cells: mouse lumbar spinal cord slices (dorsal horn / lamina II neurons), WT and Cacna2d1 KO

[5] = tested on: SHRs; experiment: PVN microinjection and recording of ABP and RSNA in SHRs; format: in vivo, rat
Experimental: PVN microinjection and recording of renal sympathetic nerve activity: Rats were anaesthetized via i.p. administration of a mixture of α-chloralose (60 mg kg-1) and urethane (800 mg kg-1) and mechanically ventilated with trachea cannulation. The arterial blood pressure (ABP) was monitored via a catheter placed in the left femoral artery, and heart rate (HR) was extracted from the pulsatile pressure wave. A retroperitoneal incision was made, and a branch of the left renal postganglionic sympathetic nerve was isolated under a surgical microscope. The renal sympathetic nerve was cut distally to ensure that afferent activity was not recorded. The ABP, HR and renal sympathetic nerve activity (RSNA) were recorded using a 1401-PLUS analogue-to-digital converter and Spike2 system (Cambridge Electronic Design, Cambridge, UK). After the brain was exposed, a microinjection pipette (tip diameter 20-30 μm) was advanced into the PVN in accordance with the stereotactic co-ordinates: 1.6-2.0 mm caudal to the bregma, 0.5 mm lateral to the midline and 7.0-7.5 mm ventral to the dura. The microinjection was performed using a Nanoject II (Drummond Scientific Company) and monitored using a surgical microscope as described previously (Li & Pan, 2006, 2007; Qiao et al. 2017). […] At the end of each experiment, the electrical background noise was measured after the proximal end of renal nerve was crushed at the end of each experiment. To determine the location of the injection site and diffusion of the drugs in the PVN, 5% rhodamine-labelled fluorescent microspheres (0.04 μm; Molecular Probes) were included in the injection solution. Rats were excluded from the data analysis if the microinjections were misplaced outside the PVN.

[6] = tested on: SNL rats; experiment: Withdrawal thresholds in spinal nerve ligation (SNL), sham and naive rats; format: in vivo, rat
From the text: Animal models of neuropathic pain: All surgical preparations and experimental protocols were approved by the Animal Care and Use Committee of the University of Texas MD Anderson Cancer Center and conformed to the National Institutes of Health guidelines for the ethical use of animals. Male Sprague-Dawley rats (8-10 weeks of age) were purchased from Harlan Laboratories (Indianapolis, Ind.). L5 and L6 spinal nerve ligation (SNL) were used as an experimental model of neuropathic pain (Cole et al., 2005). In brief, anesthesia was induced with 2-3% isoflurane, isolated the left L5-L6 spinal nerves and ligated them tightly with 6-0 silk sutures. The rats in the sham control group underwent the same surgical procedures except for the nerve ligation.
Intrathecal catheters were implanted in some SNL group rats during isoflurane-induced anesthesia 2-3 weeks after SNL surgery. Briefly, the anesthetized animal was placed on a stereotaxic frame, and a small incision was made at the back of its neck. Then, a small puncture was made in the atlanto-occipital membrane of the cisterna magna, and a PE-10 catheter (˜8 cm) was inserted with the caudal tip reaching the lumbar enlargement of the spinal cord (Luo et al., 2001; Patel et al., 2013). The rostral end of the catheter was exteriorized and closed the wound with sutures. The animals were allowed to recover for at least 4 days before the intrathecal injections were performed. Animals displaying signs of motor or neurological dysfunction were immediately killed with an intraperitoneal injection of phenobarbital (200 mg/kg) or by inhalation of CO2.
Behavioral assessments of nociception: To detect tactile allodynia, von Frey filaments were applied to the animals' left hindpaws (ipsilateral to the nerve injury). The rats or mice were placed individually in suspended chambers on a mesh floor. After an acclimation period of 30 min, a series of calibrated von Frey filaments were applied (Stoelting, Wood Dale, Ill.) perpendicularly to the plantar surface of the hindpaw with sufficient force to bend the filament for 6 s. Brisk withdrawal or paw flinching was considered a positive response. After a response, the filament of the next lower force was applied. In the absence of a response, the filament of the next greater force was applied. Using the up-down method, the tactile stimulus that produced a 50% likelihood of a withdrawal response was calculated (Fuller-Bicer et al., 2009).
To quantify the mechanical nociceptive threshold in the rats and mice (Patel et al., 2013; Dolphin et al., 2012), the paw pressure tests were conducted on the hindpaw with an analgesiometer (Ugo Basile, Varese, Italy). The device was activated by pressing a foot pedal, which triggered a motor that applied a constantly increasing force on a linear scale. […]

[7] = target: T2, NMDARs of spinal dorsal horn neurons (Rattus norvegicus, UniProt P35439+Q00959+Q00960); experiment: Electrophysiological recordings in rat spinal cord slices (SNL, Cacna2d1 vector); format: cell-based; parameters: SNL-induced increase in (NMDAR-mediated) baseline frequency of mEPSCs: dose or concentration left out as unconfirmed; settings: SNL rats, siRNA intrathecal
T2 construct: from tissue; host or cells: rat lumbar spinal cord slices (lamina II neurons) and synaptosomes made from them
Experimental: Electrophysiological recordings in spinal cord slices: Anesthesia was induced in rats or mice with isoflurane and removed the lumbar spinal cords via laminectomy. […] The spinal cord slices were placed in a glass bottom chamber and continuously perfused with Krebs solution at 5.0 ml/min at 34° C. maintained by an inline solution heater and a temperature controller.
It becomes impossible to visualize neurons in other laminas in adult (>10-week-old) rodent spinal cords because of heavy laminar myelination. […] The tip of the puff pipette was placed 150 μm away from the recorded neuron.
In some experiments, the attached dorsal root was electrically stimulated with a stimulating electrode (0.5 ms, 0.6 mA and 0.1 Hz) to evoke monosynaptic excitatory postsynaptic currents (EPSCs). The α-amino-3-hydroxy-5-methyl-4-isoxazolepropionic acid receptor (AMPAR)-mediated EPSCs were recorded at a holding potential of −60 mV in the presence of 10 μM bicuculline and 1 μM strychnine, whereas NMDAR-mediated EPSCs were recorded at +40 mV in the presence of 10 μM 6-cyano-7-nitroquinoxaline-2,3-dione, 10 μM bicuculline, and 1 μM strychnine. […] All signals were recorded using an amplifier (MultiClamp700B; Axon Instruments Inc., Union City, Calif.), filtered at 1-2 kHz, digitized at 10 kHz, and stored for off-line analysis. Final spinal cord slice recordings were performed 3-4 weeks after the nerve injury or sham surgery. In all electrophysiological experiments, 3-5 animals were used for each recording protocol, and only 1 neuron was recorded in each spinal cord slice.

[8] = tested on: α2δ-1; experiment: α2δ expression in DRG and dorsal spinal cord after intrathecal siRNA (PCR, Western blot); format: in vivo, rat; settings: SNL rats
Experimental: Li et al., 2004). α2δ-1-specific siRNA […] ID NO:49) or universal negative-control siRNA (#SIC001, Sigma-Aldrich, St. Louis, Mo.) was mixed with i-Fect (Neuromics, Edina, Minn.) to a final concentration of 400 mg/L for the intrathecal injections. α2δ-1-specific siRNA or negative control siRNA (4 μg/day for 4 days) was administered intrathecally in the SNL rats 3 weeks after surgery (Dolphin et al., 2012). Western immunoblotting analysis of α2δ-1: Western blotting was used to quantify the α2δ-1 expression level in the DRG and dorsal spinal cord. […] The supernatant was carefully collected, and the protein concentration was measured using a DC Protein Assay Kit (Bio-Rad, Hercules, Calif.). […] The specific protein band detected by using the α2δ-1 antibody was confirmed by assays of protein knockdown using the α2δ-1-specific siRNA in vivo. The protein bands were detected with ECL kit (Thermo Fisher Scientific, Waltham, Mass.), and protein band intensity was visualized and quantified using the Odyssey Fc Imager (LI-COR Biosciences, Lincoln, Nebr.). Quantitative PCR analysis: Total RNA was extracted from the DRG and spinal cord tissues at the L5 and L6 levels using TRIzol-chloroform and then treated with DNase I (Invitrogen). cDNA was prepared by using the SuperScript III First-Strand Synthesis Kit and then treated with RNase H (Invitrogen). […]

[9] = morphine-treated Cacna2d1 KO mice, AP5
[10] = morphine-treated WT mice, AP5 50 μM
[11] = paclitaxel-treated α2δ-1 KO mice

T2 sequence (Q00959 20-1464 limits assumed, other chains not shown): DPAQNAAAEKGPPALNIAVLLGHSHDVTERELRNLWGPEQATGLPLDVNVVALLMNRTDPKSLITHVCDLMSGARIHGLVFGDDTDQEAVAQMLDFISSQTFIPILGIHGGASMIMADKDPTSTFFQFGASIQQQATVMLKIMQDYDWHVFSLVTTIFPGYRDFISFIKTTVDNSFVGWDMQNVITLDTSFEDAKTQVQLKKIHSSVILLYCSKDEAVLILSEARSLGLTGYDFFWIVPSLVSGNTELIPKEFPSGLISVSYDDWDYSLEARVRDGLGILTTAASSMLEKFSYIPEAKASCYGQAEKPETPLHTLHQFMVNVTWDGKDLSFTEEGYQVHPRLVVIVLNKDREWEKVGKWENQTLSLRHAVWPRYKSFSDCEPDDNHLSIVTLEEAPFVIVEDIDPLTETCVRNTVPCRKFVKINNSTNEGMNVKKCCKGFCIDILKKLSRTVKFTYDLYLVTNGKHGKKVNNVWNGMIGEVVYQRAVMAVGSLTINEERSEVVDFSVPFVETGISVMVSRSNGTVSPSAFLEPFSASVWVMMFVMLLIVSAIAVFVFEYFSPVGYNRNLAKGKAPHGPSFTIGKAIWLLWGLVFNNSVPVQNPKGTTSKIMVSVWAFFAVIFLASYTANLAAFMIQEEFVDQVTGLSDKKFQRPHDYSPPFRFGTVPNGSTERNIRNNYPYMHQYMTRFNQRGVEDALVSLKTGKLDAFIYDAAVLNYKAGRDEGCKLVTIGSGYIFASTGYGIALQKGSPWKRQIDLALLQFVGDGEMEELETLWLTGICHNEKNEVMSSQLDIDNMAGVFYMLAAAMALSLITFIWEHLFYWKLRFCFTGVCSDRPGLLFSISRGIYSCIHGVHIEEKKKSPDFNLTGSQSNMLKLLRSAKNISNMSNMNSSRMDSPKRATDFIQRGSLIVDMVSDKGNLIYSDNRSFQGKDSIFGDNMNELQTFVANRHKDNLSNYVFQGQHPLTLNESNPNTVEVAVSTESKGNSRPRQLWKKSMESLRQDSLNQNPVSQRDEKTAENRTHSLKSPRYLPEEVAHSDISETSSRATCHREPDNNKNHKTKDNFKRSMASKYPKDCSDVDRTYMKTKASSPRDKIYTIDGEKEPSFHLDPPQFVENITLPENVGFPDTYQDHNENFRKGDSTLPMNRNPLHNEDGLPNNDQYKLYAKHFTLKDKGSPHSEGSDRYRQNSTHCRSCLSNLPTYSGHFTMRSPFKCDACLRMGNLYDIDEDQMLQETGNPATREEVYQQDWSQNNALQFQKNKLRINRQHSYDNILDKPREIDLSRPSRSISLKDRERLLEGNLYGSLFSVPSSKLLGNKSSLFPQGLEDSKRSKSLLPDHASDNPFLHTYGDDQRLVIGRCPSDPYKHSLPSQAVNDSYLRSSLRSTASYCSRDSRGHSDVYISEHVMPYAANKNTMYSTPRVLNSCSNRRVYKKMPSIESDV
T2 sequence (Q00960 27-1482, other chains not shown): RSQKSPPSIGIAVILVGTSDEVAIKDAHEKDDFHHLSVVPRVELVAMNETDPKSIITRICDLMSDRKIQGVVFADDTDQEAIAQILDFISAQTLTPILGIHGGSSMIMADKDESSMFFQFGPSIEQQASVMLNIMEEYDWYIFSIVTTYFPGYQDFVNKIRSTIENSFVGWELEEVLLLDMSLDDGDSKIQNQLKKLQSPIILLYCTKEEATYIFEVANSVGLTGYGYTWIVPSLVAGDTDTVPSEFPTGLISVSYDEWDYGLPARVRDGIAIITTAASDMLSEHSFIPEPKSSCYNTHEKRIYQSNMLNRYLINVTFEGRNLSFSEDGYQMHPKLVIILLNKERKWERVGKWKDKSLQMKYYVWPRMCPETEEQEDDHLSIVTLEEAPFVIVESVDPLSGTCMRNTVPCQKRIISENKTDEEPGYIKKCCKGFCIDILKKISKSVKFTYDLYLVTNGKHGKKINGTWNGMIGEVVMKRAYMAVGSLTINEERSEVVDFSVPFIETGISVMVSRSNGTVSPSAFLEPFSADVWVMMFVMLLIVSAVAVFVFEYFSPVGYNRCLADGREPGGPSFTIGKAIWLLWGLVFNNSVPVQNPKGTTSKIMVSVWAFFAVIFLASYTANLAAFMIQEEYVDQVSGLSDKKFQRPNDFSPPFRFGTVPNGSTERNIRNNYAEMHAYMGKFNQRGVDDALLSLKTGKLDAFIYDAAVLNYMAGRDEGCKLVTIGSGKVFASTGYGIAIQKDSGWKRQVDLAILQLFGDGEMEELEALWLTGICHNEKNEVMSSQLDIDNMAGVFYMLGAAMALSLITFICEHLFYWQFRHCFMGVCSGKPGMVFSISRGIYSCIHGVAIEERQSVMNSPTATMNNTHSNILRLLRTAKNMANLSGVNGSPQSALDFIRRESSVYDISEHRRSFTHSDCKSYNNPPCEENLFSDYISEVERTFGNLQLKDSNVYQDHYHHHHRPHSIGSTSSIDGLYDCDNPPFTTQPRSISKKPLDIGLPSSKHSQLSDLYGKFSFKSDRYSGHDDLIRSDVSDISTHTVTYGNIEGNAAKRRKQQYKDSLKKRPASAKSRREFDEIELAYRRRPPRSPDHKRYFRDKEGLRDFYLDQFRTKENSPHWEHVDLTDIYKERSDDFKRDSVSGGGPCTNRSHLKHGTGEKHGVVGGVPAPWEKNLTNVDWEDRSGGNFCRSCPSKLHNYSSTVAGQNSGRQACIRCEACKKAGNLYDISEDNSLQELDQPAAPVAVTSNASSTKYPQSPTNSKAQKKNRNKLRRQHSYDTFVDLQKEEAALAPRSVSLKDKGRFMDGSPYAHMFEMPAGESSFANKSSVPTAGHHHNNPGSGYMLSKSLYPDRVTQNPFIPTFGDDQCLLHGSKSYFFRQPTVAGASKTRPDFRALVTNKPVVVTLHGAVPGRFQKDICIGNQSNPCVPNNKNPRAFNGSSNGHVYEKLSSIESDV

Substance | amplitude or PPR of monosynaptic EPSCs [1, 9] | frequency or amplitude of mEPSCs [1, 9] | PPR of evoked EPSCs [1, 10] | amplitude of monosynaptic EPSCs [1, 10] | baseline frequency of mEPSCs [1, 10] | pain hypersensitivity induced by Cacna2d1 overexpression (tactile and pressure withdrawal thresholds) [2] | baseline PPR decreased by paclitaxel ([3]; WT mice) | paclitaxel-induced increase in the frequency of mEPSCs ([3]; WT mice) | increased baseline amplitude of evoked EPSCs ([3]; paclitaxel-treated WT mice) | PPR [3, 11] | amplitude of evoked EPSCs [3, 11] | frequency of mEPSCs [3, 11] | nerve injury-increased amplitude of monosynaptic EPSCs evoked by dorsal root stimulation [4] | ABP and RSNA, subsequent AP5 after α2δ-1Tat peptide ([5]; AP5 1.0 nmol, 50 nL into the PVN) | ABP and RSNA, AP5 after prior Tat-fused control peptide ([5]; AP5 into the PVN) | pain hypersensitivity of SNL rats ([6]; SNL rats, peptides intrathecal or systemic, siRNA intrathecal) | withdrawal thresholds in naive control rats ([6]; naive control rats, intrathecal siRNA) | SNL-induced increase in puff NMDA currents of dorsal horn neurons ([7]; gabapentin 100 mM for 30 min) | SNL-induced increase in (NMDAR-mediated) baseline frequency of mEPSCs ([7]; gabapentin for 30 min) | expression level of α2δ-1 in the DRG and dorsal spinal cord [8]
(2R)-amino-5-phosphonopentanoate [AP5] | had no effect | had no effect | increased | significantly reduced | substantially reduced | readily reversed | restored | normalized | normalized | had no effect | had no effect | had no effect | readily normalized | failed to further decrease | significantly decreased |  |  |  |  | 
CAAGCAACGAAGUUGUCUA [Cacna2d1-specific siRNA] |  |  |  |  |  |  |  |  |  |  |  |  |  |  |  | reduced pain hypersensitivity | had no effect; also recorded: No significant effects | completely normalized | completely normalized | reduced

From US11787839B2, “Targeting α2δ-1-bound glutamate receptors for treating diseases and disorders” (Board of Regents, The University of Texas System, priority 2017, dated 2023)
